These are literature values, as cited in patent publication US20080152724A1, “TREATMENT OF PER[…] AN […] RELEASE IODINE” (priority 2006, published 2008).

In the series the test system is test strains. The following applies: all of the test strains; after 30 seconds of exposure.

Turning to `N=C(NCCCCCCNC(=N)NC(=N)Nc1ccc(Cl)cc1)NC(=N)Nc1ccc(Cl)cc1.O=C(O)[C@H](O)[C@@H](O)[C@H](O)[C@H](O)CO.O=C(O)[C@H](O)[C@@H](O)[C@H](O)[C@H](O)CO` [chlorhexidine gluconate], the bactericidal activity result was “residual bacteria were observed in most species”.
